From patent US9107914B2, “Beta-carbolines for use in the treatment of hearing loss and vertigo” (AudioCure Pharma GmbH, priority 2009, dated 2015)
Entries after “also recorded” stand apart in the source; their conditions may differ.

What was measured:
[1] = tested on: organ of Corti of the cochlea of rats; experiment: Real-time RT-PCR of organ cultures of the organ of Corti (Example 14); type: cell-based; details: 90 μM, 48 hours, rat organ of Corti culture, vs solvent (100%)
Method: Initially, organ cultures of the organ of Corti of the cochlea of rats were prepared, which were brought into contact with 9-methyl-β-carboline in a next step. Expression of different neurotrophins was measured as a marker of the effects of 9-methyl-β-carboline on the organs or Corti. For this, RNA was isolated from Corti's tissue, transcribed into cDNA, and the concentrations of the cDNAs of the neurotrophins were determined with help of the real-time RT-PCR method.
Organs of Corti of the cochlea of 40 rats were prepared in several sessions on day 4 post partum. […] Amount and quality of the RNA were determined photometrical. […] Real-time reverse transcriptase polymerase chain reaction (real-time RT-PCR) was performed with the LightCycler System of Roche Applied Science, Mannheim, using the fluorescence resonance energy transfer (FRET) method. […] The gen for hydroxymethylbilane synthase (HMBS) was selected as a so-called housekeeping gene for relative quantification. […] The measured fluorescence of each cycle was analysed by the LightCycler Software. […] Quantification was conducted by the 2^−ΔΔC(t) method of Livak and Schmittgen (Livak K J and Schmittgen T D. Analysis of relative gene expression data using real-time quantitative PCR and the 2(-Delta Delta C(T)) Methods 2001; 25:402-8).

[2] = tested on: human SH-SY5Y neuroblastoma cells; experiment: Differentiation model / neurite length in human neuroblastoma cells; type: cell-based; details: 14 days; for neurite length: vs control group, P<0.001; on differentiation / neurite length in comparison to 9-methyl-β-carboline: key: +: marginally better than 9-methyl-β-carboline; ±: equal to 9-methyl-β-carboline; −: marginally worse than 9-methyl-β-carboline
Description: Human neuroblastoma cells were utilised for this model. These are permanent cells, which are present as an indifferent type in culture. They can be activated to differentiate, i.e. transformation into neuronal cells, by addition of specific substances such as retinoic acid, […] (BDNF) or activator of the enzyme, protein kinase C to the culture medium. We used this cell system to analyse whether beta-carbolines can transform the indifferent cells into the neuronal type. Criteria were: less proliferation (less cells per field of view); smaller cell bodies (transformation from the indifferent type to the neuronal type); cytodendrites (neuritis), which provide connections to neighbouring cells or clusters of neighbouring cells.
Human SH-SY5Y neuroblastoma cells were incubated in culture for 14 days with solvent (Ko) or test substance. A shift of the graph to the right side for a test substance, pointed to an increase of neurite length, when compared to the graph for the control substance. Statistical differences between the treated groups were calculated with the Tukey's Multiple Comparison-Test.
Shown are the cumulative frequency distributions of neurite lengths, determined in at least 20 randomly selected visual fields (each 640.000 μm^2) in three independent experiments. A steep rise pointed to a predominance of short neuritis, wherein for example in control cells, a less steep rise signified a greater number of longer neurites. The horizontal maximum indicated the maximal neurite length of the respective treatment group. […] The effects are dose- and substance-dependent: 1-methyl-β-carboline <6-methoxy-9-methyl-β-carboline <9-methyl-β-carboline <9-fluorethyl-β-carboline).
The effects of the other inventive β-carbolines (compounds A-L and VI-XX) on neurite length were determined, as described above, in human SH-SY5Y neuroblastoma cells after 14 days.

[3] = tested on: BDNF (brain-derived neurotrophic factor) in human SH-SY5Y cells; experiment: Relative gene expression of BDNF (FIG. 4A); type: cell-based; details: after two days
Method: (§1) Next, it was investigated, whether the substances could induce the formation of nerve growth factors in human SH-SY5Y neuroblastoma cell. After 2 and 14 days the cells were harvested and the expression of the target gene and the house keeping gene was determined via reverse transcriptase-PCR.

[4] = tested on: NPY (Neuropeptide Y) in human SH-SY5Y cells; experiment: Relative gene expression of NPY (FIG. 4E); type: cell-based; details: after 14 days of exposure
Method: as §1

[5] = tested on: transcription factor CREB in SH-SY5Y cells; experiment: Dual luciferase method for intracellular cascades (FIG. 5); type: cell-based, human; details: dose-dependent activating effect, 48 h incubation, three independent experiments
Description: The effects of β-carbolines on several intracellular cascades were investigated. Of them it is known, that at their respective ends, several transcription factors are formed in the cell nucleus, that in turn activate the transcription of a group of further genes. The dual luciferase method was used. One luciferase served as transfection control, whereas the second is coupled to the appropriate specific binding sequence of the DNA.

[6] = design: species or system guinea pigs; details: guinea pig, in vivo
Method: Thus, infusion took place into the middle ear and, therefore, outside the cochlea of the inner ear, whereby the tympanic membrane was not damaged. After three hours, 5 μL of perilymph were obtained from the apex, the tip of the cochlea, i.e. the part of the cochlea distanced most from the membrane of the round window, by a previously implanted cannula. The sample was diluted and was separated immediately by high-pressure liquid chromatography (HPLC) without further processing; and the natural fluorescence of β-carboline was determined by a fluorescence detector. The experiment was repeated with a second guinea pig and identical conditions but the sample was obtained after a 10-hour infusion. […] In a second series, 20 μg of 9-Me-BC were applied into the perilymph straight through the membrane of the round window, i.e. intra-cochlear. After three hours and after 20 hours in case of another animal, perilymph was obtained and analysed as described above. Results are depicted in FIG. 6 together with a calibration series. […] A single maximum, which represents 9-Me-BC, can be seen after 7 minutes in the upper chromatogram of FIG. 6. Clearly, no further maximum is to be seen; thus, 9-Me-BC is not degraded.

[7] = tested on: cerebellin-1 precursor protein (CBLN) in human SH-SY5Y cells; experiment: Relative gene expression of CBLN (FIG. 4B); type: cell-based
Method: as §1

inner ear of guinea pigs = experiment: Prophylaxis of hearing damages in an animal model, gentamicin and etacrynic acid (Example 30); type: in vivo; details: infusion to the round window recess, gentamicin and etacrynic acid i.v.
Method: A solution containing β-carboline was infused continuously into the recess in front of the membrane of the round window of guinea pigs by a osmotic mini-pump for three days. The following β-carbolines were tested individually in this experiment: 9-methyl-β-carboline, compounds XI, XII, XVIII, XIX as well as C to L.
Then, a standard dose of gentamicin and etacrynic acid was injected intravenously into guinea pigs. Gentamicin and etacrynic acid damage the inner ear. Typically, they are used as toxins to induce deafness in such studies. The infusion was continued for further two days. Then, the electrophysiological activity of the nerve cells of the brain stem, which transmit the impulses of the inner ear, was deduced after acoustic irradiation of the ear with […]. The non-β-carboline-treated ear served as intraindividual control (Prieskorn D M, Miller J M. Technical report: chronic and acute intracochlear infusion in rodents. Hear Res, 2000; 140(1-2): 212-215). Moreover, animals were infused with 9-Me-BC only but not with gentamicin as a further control.
The measured electrophysiological activity of the nerve cells of the acoustic nerve (hearing threshold) served as a measure of the degree of therapeutic effect of the used β-carbolines on the inner ear. As can be learned from Table 3, the used β-carbolines show the increase in electrophysiological activity of the nerve cells of the acoustic nerve. It can be concluded from this that β-carbolines are useful for the treatment of hearing damages, vertigo, and vestibular disorders.

Structure (SMILES) | generation of neurotrophins Armetl 1, BDNF, Cbln 1, NGF and NPY (transcription) [1] | dopaminergic proteins (dopamine receptor subtype 1, tyrosine hydroxylase) transcription ([1]; listed as 9-Me-BC) | neurite length ([2]; 70, 90 or 110 μM) | concentration(s) that stimulated BDNF transcription [3] | NPY gene expression, concentration dependence [4] | formation of the transcription factor CREB relative to the level in control cells [5] | degradation in perilymph (further chromatographic maxima) [6] | penetration of the membrane of the round window into the perilymph [6] | neurite length ([2]; 30, 50 or 70 μM) | differentiation / neurite length in comparison to 9-methyl-β-carboline ([2]; SH-SY5Y cells) | CBLN gene expression ([7]; after 14 days of exposure) | CBLN gene expression ([7]; after two days exposure) | effect on the inner ear (electrophysiological activity, hearing threshold) in comparison to 9-methyl-β-carboline (inner ear of guinea pigs)
Cn1c2ccccc2c2ccncc21 [9-methyl-β-carboline] | activated | activates specifically characteristic proteins of dopaminergic nerve cells; also recorded: increasingly activated | increase in neurite length | 110 µM | lower concentrations were more effective than the higher concentrations | up to ten times | not degraded | penetrates the membrane of the round window |  |  |  |  | 
FCCn1c2ccccc2c2ccncc21 [fluorethyl-BC (XIX), 9-(2-fluoroethyl)-9H-β-carboline] |  |  |  |  | lower concentrations were more effective than the higher concentrations | up to ten times |  |  | increase in neurite length | + | roughly the same stimulation at all investigated concentrations | increased | +
